Patent US20110098296A1, “Thiazole And Oxazole Kinase Inhibitors” (priority 2007, published 2011)

How the values were obtained:
Assay type in all cases: cell-based
[1] = test system: BT474 tumor cells; test: Method C: Cell Growth Inhibition Assay (CellTiter-Glo), BT474; conditions: Homo sapiens, BT-474, 72 h, 3 days, 4-parameter fit
[2] = test system: HT-29 tumor cells; test: Method C: Cell Growth Inhibition Assay (CellTiter-Glo), HT-29; conditions: Homo sapiens, HT-29, 72 h, 3 days, 4-parameter fit
Summary of the method: (§1)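 Cells plated at 500 cells/well, dosed next day with 10-point 1:3 dilution series (0.2% final DMSO) and grown 3 days at 37 °C, 5% CO2. CellTiter-Glo luminescence (total ATP) served as cell-number surrogate; inhibition relative to DMSO controls, IC50 interpolated by 4-parameter fit.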

[3] = test system: SK-MEL-28 tumor cells; test: Method C: Cell Growth Inhibition Assay (CellTiter-Glo), SK-MEL-28; conditions: Homo sapiens, SK-MEL-28, 72 h, 3 days, 4-parameter fit
Summary of the method: as §1

[4] = test system: SK-MEL-3 tumor cells; test: Method C: Cell Growth Inhibition Assay (CellTiter-Glo), SK-MEL-3; conditions: Homo sapiens, SK-MEL3, 72 h, 3 days, 4-parameter fit
Summary of the method: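 Cells were seeded at 500 per well and dosed the next day with nine serial 1:3 compound dilutions (0.2% DMSO final), then grown 3 days at 37° C, 5% CO2. ATP was measured by CellTiter-Glo luminescence, and IC50 was interpolated by 4-parameter fit of percent inhibition versus DMSO controls.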

[5] = test system: Colo205 tumor cells; test: Method B: CellTiter-Glo Growth Inhibition Assay, Colo205; conditions: Homo sapiens, COLO 205, 72 h, 3 days
Summary of the method: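 Cells plated (BT474 3,000, HN5 500, Colo205 3,000 per well) in RPMI or DMEM with 10% FBS; compounds added next day, final DMSO 0.3%, then 3 days at 37° C, 5% CO2. Viability by CellTiter-Glo luminescence; percent inhibition versus vehicle, IC50 interpolated by nonlinear regression.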

[6] = test system: A375P F11s tumor cells; test: Method C: Cell Growth Inhibition Assay (CellTiter-Glo), A375P F11s; conditions: Homo sapiens, 72 h, 3 days, 4-parameter fit
Summary of the method: as §1

Row | Structure (SMILES) | IC50 [1] | IC50 [2] | IC50 [3] | IC50 [4] | IC50 [5] | IC50 [6]
1 | COc1cc(Nc2nccc(-c3sc(N)nc3-c3cccc(NC(=O)c4c(F)cccc4F)c3)n2)cc(OC)c1OC [Example 16, N-[3-(2-Amino-5-{2-[(3,4,5-trimethoxyphenyl)amino]pyrimidiN-4-yl}-1,3-thiazol-4-yl)phenyl]-2,6-difluorobenzamide] | < 100 nM | 100 to 1000 nM |  |  |  | 
2 | COc1ccc(Nc2nccc(-c3sc(N)nc3-c3cccc(NC(=O)c4c(F)cccc4F)c3)n2)cc1N1CCNCC1 [Example 18, N-[3-(2-Amino-5-{2-[(4-methoxy-3-piperaziN-1-ylphenyl)amino]pyrimidiN-4-yl}-1,3-thiazol-4-yl)phenyl]-2,6-difluorobenzamide] | 100 to 1000 nM |  | > 1000 nM |  |  | 
3 | Cc1cc(-c2sc(N)nc2-c2cccc(NC(=O)c3c(F)cccc3F)c2)nc(Nc2cccc(F)c2)n1 [Example 48, N-[3-(2-Amino-5-{2-[(3-fluorophenyl)amino]-6-methyl-4-pyrimidinyl}-1,3-thiazol-4-yl)phenyl]-2,6-difluorobenzamide] | > 1000 nM |  |  |  |  | 
4 | CCNc1nc(-c2cccc(NC(=O)C3CC3)c2)c(-c2ccnc(Nc3ccc(OCCN4CCCC4)c(Cl)c3)n2)s1 [Example 63, N-{3-[5-{2-[(3-Chloro-4-{[2-(1-pyrrolidinyl)ethyl]oxy}phenyl)amino]-4-pyrimidinyl}-2-(ethylamino)-1,3-thiazol-4-yl]phenyl}cyclopropanecarboxamide] | 100 to 1000 nM | 100 to 1000 nM | > 1000 nM | 100 to 1000 nM | 100 to 1000 nM | 100 to 1000 nM
5 | Nc1nc(-c2cccc(C(=O)Nc3c(F)cccc3F)c2)c(-c2ccnc(Nc3cccc(CN4CCCC4)c3)n2)s1 [Example 77, 3-[2-Amino-5-(2-{[3-(1-pyrrolidinylmethyl)phenyl]amino}-4-pyrimidinyl)-1,3-thiazol-4-yl]-N-(2,6-difluorophenyl)benzamide] | 100 to 1000 nM | 100 to 1000 nM | > 1000 nM | < 100 nM | < 100 nM | 100 to 1000 nM
6 | Cc1nc(-c2cccc(NC(=O)c3c(F)cccc3F)c2)c(-c2ccnc(Nc3ccc(OCCN(C)C)c(Cl)c3)n2)s1 [Example 103, N-[3-(5-{2-[(3-Chloro-4-{[2-(dimethylamino)ethyl]oxy}phenyl)amino]-4-pyrimidinyl}-2-methyl-1,3-thiazol-4-yl)phenyl]-2,6-difluorobenzamide] | < 100 nM |  | > 1000 nM |  | > 1000 nM | 
7 | Cc1nc(-c2cccc(NC(=O)c3c(F)cccc3F)c2)c(-c2ccnc(Nc3ccc(OC4CCN(C(=O)OCc5ccccc5)CC4)c(F)c3)n2)s1 [Example 106] | > 1000 nM |  | > 1000 nM |  |  | 
8 | CCc1nc(-c2cccc(NC(=O)c3c(F)cccc3F)c2)c(-c2ccnc(Nc3cccc(CN4CCCC4)c3)n2)s1 [Example 115, N-{3-[2-Ethyl-5-(2-{[3-(1-pyrrolidinylmethyl)phenyl]amino}-4-pyrimidinyl)-1,3-thiazol-4-yl]phenyl}-2,6-difluorobenzamide] | 100 to 1000 nM | 100 to 1000 nM | > 1000 nM | 100 to 1000 nM |  | > 1000 nM
9 | Cc1nc(-c2cccc(NC(=O)c3cc(F)ccc3F)c2)c(-c2ccnc(Nc3ccc(OCCN(C)C)c(Cl)c3)n2)o1 [Example 142] |  |  | > 1000 nM |  | > 1000 nM | 
